# Test results from patent EP0081122B1, “Carrier tripeptides with antifungal activity” (Helopharm W. Petrik GmbH & Co.KG., priority 1982, dated 1985).
# Tests used:
# [1] = dissertation Universität Tübingen 1975; cited from earlier work
# Candida albicans = assay: Growth inhibition / minimal inhibitory concentration in yeast nitrogen base medium; assay type: cell-based
# Procedure: Die weiteren Untersuchungen dieser fünf Tripeptide gegenüber Cadida albicans und Candida pseudotropicalis in »yeast nitrogen base« Medium mit einer Zellzahl von 10^4/ml zu Testbeginn führten zu dem Ergebnis, daß diese Tripeptide keinerlei Wachstumshemmung zeigen. Die Tripeptide werden dabei bis zu einer Konzentration von 10 mg/ml Testmedium beurteilt. Bei den Tripeptiden L-Arg-D-Val-L-Phe und L-Arg-D-Ala-L-Phe werden im Gegenteil sogar Wachstumsförderung von Candida albicans festgestellt.
# In der beigefügten Tabelle I sind die kleinsten inhibierenden Konzentrationen der beiden beispielsweisen erfindungsgemäßen Tripeptide 1 und 2 denjenigen der freien Antimetaboliten gegenübergestellt anhand des Beispiels candida albicans. Die Untersuchungen wurden in einem yeast nitrogen base Medium mit einem Glukosegehalt von 2% und einem pH-Wert von 7,2 durchgeführt. Die Zellzahl zu Versuchsbeginn beläuft sich auf 10^4/ml. Die Tests werden in Mikrotiterschalen durchgeführt und es wird 24 Stunden bei 30° C inkubiert.
# einigen Bakterien = assay: Antibacterial activity of free amino acid antagonists; assay type: cell-based; conditions: lost when built into the tripeptides
Compound,durch Carboxypeptidasen spaltbar (Carboxypeptidasen),Wirksamkeit gegenüber einigen Bakterien (einigen Bakterien),other results
L-Arginyl-D-allothreonyl-L-phenylalanin,–,–,antifungische Wirksamkeit [1]: antifungische Wirksamkeit
"CC(=O)N[C@@H](CCCNC(=N)N)C(=O)NC(Cc1ccc(F)cc1)C(=O)N[C@@H](Cc1ccccc1)C(=O)O (mixture of isomers) [Verbindung 3, N 1-Acetyl-L-arginyl-DL-(p-fluorphenylalanyl)-L-phenyialanin]",schwerer spaltbar,–,–
"N=C(N)NCCC[C@H](N)C(=O)NC(Cc1ccc(F)cc1)C(=O)N[C@@H](Cc1ccccc1)C(N)=O (mixture of isomers) [Verbindung 4, L-Arginyl-DL-(p-fluorphenylalanyl)-L-phenylalaninamid]",schwerer spaltbar,–,–
NC(Cc1ccc(F)cc1)C(=O)O (racemic) [p-F-DL-Phenylalanin],–,Wirksamkeit zeigen,"Wirksamkeit gegen candida albicans (Candida albicans): nicht wirksam; MIC (Candida albicans; 24 h, all tested Candida albicans isolates, read-out: inhibierende Konzentration): > 256 µg/mL"
NC(Cc1cccs1)C(=O)O (racemic) [β-2-DL-Thienylalanin],–,Wirksamkeit zeigen,–
